Experiment [1] concerns Kyn transporter PAT4. Put plainly: Expression of Kyn transporter PAT4 in activated human CD8+ T cells, quantitative PCR (Example 10). The note with it: activated CD8+ T cells of breast cancer patients; Kyn 200 μM with or without HB-48 10 μM; 48 hours. It is filed as cell-based. The protocol:
(§1) Mononuclear cells were obtained from peripheral whole blood of patients with breast cancer using Ficoll. CD8+ T cells were sorted by magnetic beads and plated on 96-well U-shaped bottom plates (100,000 cells/well). T cells were activated by anti-CD3/CD28 magnetic beads. Media was RPMI-1640 plus 10 ng/mL human IL-2. Dosing by the following groups: • Control group 1 (PBS): medium and PBS. • Experimental group 2 (Kyn): Kyn 200 μM was added to the medium. • Experimental group 3 (Kyn+DMF): Kyn 200 μM and DMF 10 μM were added to the medium simultaneously. • Experimental group 4 (Kyn+HB-48): Kyn 200 μM and HB-48 10 μM were added to the medium simultaneously.
Each group of T cells RNA was extracted after 48 hours, and the expression of PAT4 was detected by fluorescence quantitative PCR.

Experiment [2] deals with inflammatory factors of macrophages derived from murine bone marrow. Put plainly: Expression of inflammatory factors in bone marrow-derived macrophages, qPCR (Example 13). It is filed as cell-based, mouse. The note with it: HB-48 10 μM, 48 h. How it is done: Bone marrow-derived macrophages were obtained from mouse bone marrow cells, RPMI-1640 plus mouse M-CSF 20 ng/mL for 5 days and were treated as follows: • Control group 1 (PBS): medium plus PBS; • Experimental group 2 (HB-48): medium plus HB-48 at a dose of 10 μM. After 48 h, macrophages were collected and the expression of IFN-γ, TNF-α, IL-12p35, IL-12p40 and IL-2 was detected by qPCR in both groups.

The test system of experiment [3] is PD-1 expression in mouse CD8+ T cells. Put plainly: PD-1 expression on activated mouse CD8+ T cells, flow cytometry (Example 8). It is filed as cell-based. The settings on record: mouse spleen CD8+ T cells activated by anti-CD3/CD28 beads; Kyn 200 μM and HB-48 10 μM; 48 hours. The protocol:
Mouse spleen CD8+ T cells were sorted by magnetic beads and seeded in U-bottom 96-well plates (100,000/well) and T cells were activated by anti-CD3/CD28 magnetic beads. The medium was RPMI-1640 plus 10 ng/Mouse IL-2 and […] β-mercaptoethanol. Treatment and dosing is described below: • Control group 1 (PBS): Medium and PBS; • Experimental group 2 (Kyn): Kyn 200 μM was added to the Medium. • Experimental group 3 (Kyn+DMF): Kyn 200 μM and DMF 10 μM were added to the Medium simultaneously. • Experimental group 4 (Kyn+HB-48): Kyn 200 μM and HB-48 10 μM were added to the Medium simultaneously.
(§2) PD-1 expression levels were measured by flow cytometry in each group of T cells at 48 hours.
A general note: In flow cytometry, cells or beads pass a laser one at a time.

Experiment [4] relates to OVA-B16 cells co-cultured with OT-1 CD8+ T cells. Put plainly: Apoptosis of OVA-B16 co-cultured with pretreated OT-1 CD8+ T cells (Example 8). Type of experiment: cell-based, mouse. The settings on record: T cells pretreated with HB-48 10 μM for 24 hours; co-culture ratio 1 to 10; 4 hours. How it is done: Spleen CD8+ T cells of OT-1 mice were obtained by magnetic bead sorting, seeded in a U-shaped bottom 96-well plate (100,000 cells/well) and treated as follows. • Control group 1 (PBS): medium plus PBS. • Experimental group 2 (DMF): DMF 10 μM was added to the medium. • Experimental group 3 (HB-48): HB-48 10 μM was added to the medium.
After pretreatment of T cells for 24 hours, 3D cultured OVA-B16 was co-cultured with OT-1 CD8+ T cells at a ratio of 1 to 10, and the apoptosis of OVA-B16 cells was detected by flow cytometry after 4 hours.

The test system of experiment [5] is PD-1 expression in human peripheral blood CD8+ T cells. Briefly: PD-1 expression in peripheral blood CD8+ T cells of breast cancer patients (Example 10). It is filed as cell-based. The settings on record: resting CD8+ T cells of breast cancer patients; HB-48 10 μM; 48 hours; compared with DMF 10 μM. How it is done:
Mononuclear cells were obtained from peripheral blood of breast cancer patients using Ficoll. CD8+ T cells were sorted by magnetic beads and plated on U-bottom 96-well plates (100,000 cells/well) supplemented with RPMI-1640 supplemented with 10 ng/mL human IL-2. Dosing by the following groups: • Control group 1 (PBS): medium plus PBS. • Experimental group 2 (DMF): DMF 10 μM was added to the medium. • Experimental group 3 (HB-48): HB-48 10 μM was added to the medium.
as §2

In experiment [6] the test system is mice melanoma B16 cells. Briefly: B16 tumor-bearing C57 mice, HB-48 versus DMF (Example 3). It is filed as in vivo, mouse. The settings on record: intratumor injection 5 mg/kg every two days for 10 days. How it is done:
Establishment of tumor-bearing mice model: 1×10^5 mice melanoma B16 cells were transplanted into 4˜6 weeks old C57BL/C mice (C57 mice). The weight of each mouse was about 20 g. Tumors were visible on day 7. Mice were treated as follows when the tumor sizes were 5 mm×5 mm. • Control group 1 (PBS): Intratumor injection with PBS. • Experiment group 2 (HB-48): Intratumor injection with HB-48 at 5 mg/kg every two days for 10 days. • Experiment group 3 (DMF): Intratumor injection with DMF with 5 mg/kg every two days for 10 days.
Tumor sizes were recorded daily.

Experiment [7] concerns A375, B16, MP-1, MCF-7, HL-60, K562 and ALL-1 cells. Put plainly: 3D gel culture, clone size, HB-48 alone (Example 1). Type of experiment: cell-based, human; mouse (B16). The note with it: 3D culture; HB-48 1, 5, 10, 20 or 50 μmol/ml; 48 and 96 hours. The protocol:
3D gel technology involves culturing cells in a gel-like matrix. Studies in our lab have shown that cancer cells grown using 3D technology behave more like cancers found in vivo, as cancer cells grown using 3D technology display strong proliferative ability, higher drug resistance, stronger tumorigenicity and greater far-end invasion transfer ability than cancer cells cultured using traditional methods. The following treatments were added to 3D cultures of viable cells. • Control group 1 (Medium): RPMI-1640 medium supplemented with glutamine. • Experiment group1 (HB-48): HB-48 was added to cells at a final concentration of 1 μmol/ml, 5 μmol/ml, 10 μmol/ml, 20 μmol/ml, or 50 μmol/ml in Medium.
Dosing drugs was recorded as day 0. Clone size was determined by taking photographic images 48 and 96 hours after dosing. ImageJ software was used to analyze the size of the clones. The clone sizes in different groups were normalized to the control group on the second day.

Experiment [8] deals with OVA-B16 melanoma cells. Briefly: OVA-B16 tumor-bearing C57BL/6 mice, adoptive CD8+ T cells and HB-48 (Example 9). The note with it: HB-48 intratumoral 5 mg/kg every two days, 10 times, OT-1 T cells 4×10^6 i.v. every 5 days, 3 times. Type of experiment: in vivo, mouse. How it is done:
Tumor-bearing mice were constructed: OVA-B16 melanoma cells were seeded on C57BL/6 mice (inoculation amount of 1×10^5 cells) for 4-6 weeks. […] When the tumor size reached 5 mm×5 mm, tumor-bearing mice were treated as follows: • Control group 1 (PBS): Intratumoral injection of PBS only. • Experimental group 2 (CD8+ T cells): Tumor bearing mice were intravenously adoptively transferred with 4×10^6 OVA-specific CD8^+ T-cells (OT-1 T-cells) once every 5 days for 3 times. • Experimental group 3 (DMF): Tumor-bearing mice were intratumorally injected with DMF every two days, a total of 10 times, each dose of 5 mg/kg. • Experimental group 4 (HB-48): Tumor-bearing mice were intratumorally injected with HB-48 every two days, a total of 10 times, each dose of 5 mg/kg. • Experimental group 5 (CD8+ T and DMF): Tumor-bearing mice were intravenously transferred with OT-1 T cells every 5 days for 3 times, and intratumorally injected with DMF every two days for 10 times at the same time. • Experimental group 6 (CD8+ T and HB-48): Tumor-bearing mice were intravenously transfered with OT-1 T cells every 5 days for 3 times, and intratumorally injected with HB-48 every two days for 10 times at the same time.
Tumor length and width were measured daily, and tumor volume changes were calculated.

Experiment [9] deals with A375, B16, MP-1, MCF-7, HL-60, K562 and ALL-1 cells. Briefly: 3D gel culture, number of colonies, HB-48 alone (Example 2). It is filed as cell-based, human; mouse (B16). The note with it: 3D culture; HB-48 1, 5, 10, 20 or 50 μmol/ml. How it is done: The following treatments were added to cultures of viable cells. • Control group 1 (Medium): RPMI-1640 medium supplemented with glutamine. • Experiment group1 (HB-48): HB-48 was added to cells at a final concentration of 1 μmol/ml, 5 μmol/ml, 10 μmol/ml, 20 μmol/ml, or 50 μmol/ml in Medium.
The day of drug treatment was recorded as day 0. […] The size of colonies in group control on day 2 is served as control.

Experiment [10] concerns PD-1 expression in human activated CD8+ T cells. Briefly: Kyn-mediated PD-1 upregulation in activated peripheral blood CD8+ T cells of breast cancer patients (Example 10). Type of experiment: cell-based. The settings on record: Kyn 200 μM and HB-48 10 μM, 48 hours, compared with DMF 10 μM. How it is done: as §1, §2

As for `COCOC1=CC(=O)/C(=C(O)/C=C/c2ccc(OCOC)cc2)C(=O)C1(CC=C(C)C)CC=C(C)C` [HB-48, 2-[1-hydroxy-3-(4-methoxymethoxyphenyl)allylidene]-5-methoxymethoxy-6,6-diprenylcyclohex-4-ene-1,3-dione], the “expression of PAT4 in peripheral blood CD8+ T cells” value in experiment [1] was “can down-regulate the expression of PAT4”. In [2], the “expression of IFN-γ” value was “significantly reduced”, the “expression of IL-1β” value is “significantly reduced”, the “expression of IL-12p35” value is “significantly reduced” and the “expression of IL-12p40” value is given as “significantly reduced”. The “expression of TNF-α” value in experiment [2] is “significantly reduced”. In addition, in experiment [3], the “Kyn-mediated upregulation of PD-1 in CD8+ T cells” value is “inhibited Kyn-mediated upregulation of PD-1 in CD8+ T cells more effectively than DMF”. For the same compound, the “percentage of apoptosis of OVA-B16 tumor cells” value in experiment [4] was “significantly increased”. Besides, in experiment [5], the “PD-1 expression in peripheral blood CD8+ T cells” value is “more effectively down-regulated PD-1 expression”. Besides, the “tumor growth (tumor volume)” value in [6] was “shows a significant enhanced anticancer effect”. In addition, the “growth (relative clone size) of solid tumor and leukemia cells” value in [7] is “significantly inhibited the growth of solid tumor and leukemia cells in a concentration-dependent manner”. In addition, the “therapeutic effect (tumor volume)” value in experiment [8] is given as “had a certain therapeutic effect”. Besides, the “colony numbers of solid tumor cells and leukemia cells” value in experiment [9] is “effectively reduced the colony numbers of solid tumor cells and leukemia cells in a dose dependent manner”. Besides, the “Kyn-mediated upregulation of PD-1 in peripheral blood CD8+ T cells” value in experiment [10] was “inhibited Kyn-mediated upregulation of PD-1”.
As to `COc1ccc(-c2cc(=O)c3ccccc3o2)cc1OC` [DMF, 3′,4′-Dimethoxyflavone, reference compound], the “tumor growth (tumor volume)” value in experiment [6] is given as “could inhibit the tumor growth”.
Take `Nc1ccccc1C(=O)CC(N)C(=O)O` (stereo not shown) [Kyn, Kynurenine, reference compound]: the “expression of PAT4 in peripheral blood CD8+ T cells” value in experiment [1] is “can up-regulate the expression of its transporter PAT4”.

For the origin of these results see US10988429B2, “Quinochalcone compound and uses thereof for treating cancer or inflammation” (CHON THERAPEUTICS INC., LTD., priority 2017, dated 2021).
